Assay results as given in US10654834B2 (Venenum Biodesign, LLC, priority 2016, dated 2020).

Tests used:
[1] = Absorption vs. first pass metabolism: Cmax in ICR mice with and without 1-aminobenzotriazole (ABT) pre-treatment; format: in vivo, mouse; details: 10 mg/kg p.o., ABT 150 mg/kg 2 h before
Protocol: Absorption Vs. First Pass Metabolism
In this study, we further examined the absorption as compared to first pass metabolism of the compounds of the present invention. ICR mice (Hilltop) were pre-treated with 1-aminobenzotriazole (ABT), a nonselective inhibitor of cytochrome P450 enzymes, to inhibit Cyp450-mediated degradation of the compounds in liver.
ABT was administered at 150 mg/kg in 5 mL/kg of 0.04% ethanol in 0.5% methyl cellulose (w/v) by oral gavage, 2 hours prior to test compound administration. The compounds (i.e., Compounds 56, 268, 249, 61, 126, and 199) were administered by oral gavage at 10 mg/kg in 10 mL/kg of 20% PEG400/80% (0.5% (w/v) CMC containing 0.25% (v/v) Tween 80) (v/v), 2 hours after the ABT treatment. Blood was collected via orbital bleeding at predose, 0.25, 0.5, 1, 2, and 4 hours post-dose and the quantification of compound levels in plasma was accomplished by means of LC-MS/MS analysis as described in Example 81. Reference compound “Propranolol” that is known to be metabolized by Cyp450 was used as a positive control.
FIG. 15 depicts the Cmax (nM) of the compounds of the present invention with and without ABT pre-treatment.

[2] = 6-week DEXA body composition analysis in DIO mice; format: in vivo, mouse; details: 6 weeks BID dosing
From the text: In the next series of studies (Examples 93-99), Male DIO mice were received at 12 weeks of age (from Taconic), and were single-housed at the testing facility and acclimated for at least 2 weeks. The mice were provided a high fat diet [Research Diet D12492 (60% Fat kcal)] while in the testing facility. Before the study initiation, the animals were randomized into 5 experimental groups by body weight. The vehicle group contained only 0.5% carboxymethylcellulose (medium viscosity)+0.25% Tween-80. The second group contained 10 mg/kg of the DPP-IV inhibitor Sitagliptin while the third group contained 30 mg/kg Compound 268. The fourth group contained the combination of 10 mg/kg Sitagliptin and 30 mg/kg Compound 268. The fifth group was the positive control for weight loss, Rimonabant. All mice were dosed BID at approximately 6:00 am and again at approximately 4:00 pm. The positive control rimonabant was administered at a dose of 10 mg/kg in the afternoon and the morning dosing was vehicle (no compound).
6-Week Dexa Analysis after Multiple Weeks of Dosing Compounds
Compounds of the present invention were dosed for multiple weeks and the mice were analyzed to determine whether weight loss seen in Example 93 was due to a loss in fat or lean mass.
In this example, the protocol from Example 93 was utilized. The day of experiment, the mice were anesthetized using 2.5% avertin [tert-amyl alcohol (Aldrich #15,256-3) and 2,2,2-tribromoethanol (Aldrich # T4, 840-2)]. Their body composition was assessed using the PIXImus2 X-ray unit (GE Lunar Corporation, Madison, Wis.) connected to a computer equipped with LUNAR PIXImus2 software. The head region of each mouse was excluded from the analysis. The following measurements were automatically measured or calculated by the PIXImus2 software: bone mineral density (BMD), bone mineral content (BMC), bone area (B Area), tissue area (T Area), percent fat, and total tissue mass (TTM). Fat mass, the percentage of lean mass, and lean mass, were calculated manually as follows: % Lean=100−% Fat Lean Mass=TTM×(100−% Fat) Fat Mass=TTM×% Fat

| Compound | Cmax with versus without ABT pre-treatment [1] | fat mass versus lean mass (DEXA) [2] | loss in weight / total tissue mass (DEXA) [2] |
| --- | --- | --- | --- |
| CC(C)NCC(O)COc1cccc2ccccc12 (stereo not drawn) [propranolol, Propranolol] | significantly higher in ABT pre-treated mice | – | – |
| N[C@@H](CC(=O)N1CCn2c(nnc2C(F)(F)F)C1)Cc1cc(F)c(F)cc1F [sitagliptin, Sitagliptin, reference compound] | – | due to a loss in the Fat Mass | about the same loss in weight |
